From US6808904B2, “Herbicide-tolerant protox genes produced by DNA shuffling” (priority 1994, dated 2004) come the findings set out here.

The target in assay [1] is T1, plant protox mutants (Arabidopsis protox-1) in SASX38 (Arabidopsis thaliana, UniProt P55826, N425S/T56K/Y426M).
T1 construct: contains only 17 amino acids of the putative chloroplast transit peptide; expressed in transfected cells; host or cells: E. coli SASX38 (hemG mutant)
The assay can be described thus: Bacterial cross-tolerance testing of resistant mutant plasmids in SASX38, Arabidopsis protox-1 mutants. In kind it is cell-based. Further details: key to Cross tolerance, AraC-1Val / Cross tolerance, AraC-2Cys / Cross tolerance, AraC-1Thr / Cross tolerance, AraC-3Thr / Cross tolerance, AraC-2Ile / Cross tolerance, AraC-2Cys + AraC425Ser: + = 10× or more tolerant than WT; ++ = 100× or more tolerant than WT; − = no cross tolerance. The conditions noted are these: mutant AraC-2Met + AraC425Ser. As for the experimental part:
(§1) Resistant mutant plasmids, originally identified based on resistance against a single protox inhibitory herbicide, were tested against a spectrum of other protox inhibiting compounds. For this test, the SASX38 strain containing the wild-type plasmid is plated on a range of concentrations of each compound to determine the lethal concentration for each one. Resistant mutant plasmids in SASX38 are plated and scored for the ability to survive on a concentration of each compound at least 10 fold higher than the concentration that is lethal to the SASX38 strain containing the wild-type plasmid.

The target of assay [2] is T2, plant protox mutants (Arabidopsis protox-1) in SASX38 (Arabidopsis thaliana, UniProt P55826, T56K/Y426I).
T2 construct: contains only 17 amino acids of the putative chloroplast transit peptide; expressed in transfected cells; host or cells: E. coli SASX38 (hemG mutant)
Described as above. The note with it: mutant AraC-2Ile. Format: cell-based. Further details: key to Cross tolerance, AraC-1Val / Cross tolerance, AraC-2Cys / Cross tolerance, AraC-1Thr / Cross tolerance, AraC-3Thr / Cross tolerance, AraC-2Ile / Cross tolerance, AraC-2Cys + AraC425Ser: + = 10× or more tolerant than WT; ++ = 100× or more tolerant than WT; − = no cross tolerance. Here is the method: as §1

Assay [3] has as its target T3, plant protox mutants (MzC-1Val, maize protox-1) in SASX38 (Arabidopsis thaliana, UniProt P55826, A220V/A252T/A259N/A262P/A292S/A82G/A83V/D204A/D323E/D487E/D93A/DEL80-81/E103P/E263P/E288N/E311D/E351S/E499D/F107Y/F178L/F250I/F483L/G171P/G277A/G306S/G313K/G344N/G441S/H340Y/I100T/I174L/I370V/I421V/I485L/I71T/I87L/INS101VE/K237R/K257S/K359R/K388Q/K457N/K465V/K78R/K92R/L137F/L159P/L310S/L325V/L345I/L360F/L436V/L86V/M122V/N105E/N149E/N241T/N258K/N316V/N355D/N459T/N85D/P266A/P418D/P458S/P84G/Q240E/Q272K/R284A/R293S/S186P/S291T/S305T/S312D/S330A/S352D/S369T/S430A/S439T/S460A/S491A/S492A/S495R/S496G/T141N/T160A/T318E/T379K/T397S/T461V/T488A/T494D/T56K/V126A/V334I/V337I/V95P).
T3 construct: expressed in transfected cells; host or cells: E. coli SASX38 (hemG mutant)
As to the kind of experiment: Bacterial cross-tolerance testing of resistant mutant plasmids in SASX38, maize protox-1 mutant. Format: cell-based. Further details: key: + = 10× or more tolerant than WT; ++ = 100× or more tolerant than WT; − = no cross tolerance. The conditions noted are these: mutant MzC-1Val vs WT plasmid in SASX38. Here is the method:
as §1

For assay [4], the system named is Arabidopsis line expressing AraC-2Ile+AraC305Leu. The assay can be described thus: Cross tolerance in a seed germination assay, homozygous Arabidopsis line with AraC-2Ile+AraC305Leu. Format: in vivo, Arabidopsis thaliana. The note with it: AraC-2Ile+AraC305Leu line vs wt. Here is the method:
Using the procedure described above, an Arabidopsis protox-1 cDNA containing a TAC to ATG (Tyrosine to Methionine) change at nucleotides 1306-1308 in the protox-1 sequence (SEQ ID NO:1) was fused to the native protox-1 promoter fragment and transformed into Arabidopsis thaliana. […] Seed from the vacuum infiltrated plants was collected and plated on a range (10.0 nM-1.0 uM) of a protox inhibitory aryluracil herbicide of formula XVII. Multiple experiments with wild type Arabidopsis have shown that a 10.0 nM concentration of this compound is sufficient to prevent normal seedling germination. Transgenic seeds expressing the AraC-2Met altered enzyme fused to the native protox-1 promoter produced normal Arabidopsis seedlings at herbicide concentrations up to 500 nM, indicating at least 50-fold higher herbicide tolerance when compared to wild-type Arabidopsis. This promoter/altered protox enzyme fusion therefore functions as an effective selectable marker for plant transformation. Several of the plants that germinated on 100.0 nM of protox-inhibiting herbicide were transplanted to soil, grown 2-3 weeks, and tested in a spray assay with various concentrations of the protox-inhibiting herbicide. When compared to empty vector control transformants, the AraPT1Pro/AraC-2Met transgenics were >10-fold more tolerant to the herbicide spray.
Using the procedure described above, an Arabidopsis protox-1 cDNA containing both a TAC to ATC (tyrosine to isoleucine) change at nucleotides 1306-1308 and a TCA to TTA (serine to leucine) change at nucleotides 945-947 in the protox-1 sequence (SEQ ID NO:1) was fused to the native protox-1 promoter fragment and transformed into Arabidopsis thaliana.

T2 sequence (P55826 41-537 T56K/Y426I): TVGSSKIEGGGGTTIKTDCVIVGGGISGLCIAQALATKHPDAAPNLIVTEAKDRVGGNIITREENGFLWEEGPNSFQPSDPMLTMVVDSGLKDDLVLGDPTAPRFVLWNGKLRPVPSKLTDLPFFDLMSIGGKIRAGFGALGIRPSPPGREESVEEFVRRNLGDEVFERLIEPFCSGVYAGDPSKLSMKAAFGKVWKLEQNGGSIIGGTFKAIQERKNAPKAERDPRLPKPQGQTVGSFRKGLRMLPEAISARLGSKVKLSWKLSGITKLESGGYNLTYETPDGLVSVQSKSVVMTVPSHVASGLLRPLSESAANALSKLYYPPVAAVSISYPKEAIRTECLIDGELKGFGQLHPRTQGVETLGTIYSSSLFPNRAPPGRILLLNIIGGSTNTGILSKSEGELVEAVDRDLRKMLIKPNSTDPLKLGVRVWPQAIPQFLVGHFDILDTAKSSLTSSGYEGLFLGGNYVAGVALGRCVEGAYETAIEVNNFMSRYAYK
T3 sequence (P55826 other isoform, or with tags, fused parts or gaps with the stated changes): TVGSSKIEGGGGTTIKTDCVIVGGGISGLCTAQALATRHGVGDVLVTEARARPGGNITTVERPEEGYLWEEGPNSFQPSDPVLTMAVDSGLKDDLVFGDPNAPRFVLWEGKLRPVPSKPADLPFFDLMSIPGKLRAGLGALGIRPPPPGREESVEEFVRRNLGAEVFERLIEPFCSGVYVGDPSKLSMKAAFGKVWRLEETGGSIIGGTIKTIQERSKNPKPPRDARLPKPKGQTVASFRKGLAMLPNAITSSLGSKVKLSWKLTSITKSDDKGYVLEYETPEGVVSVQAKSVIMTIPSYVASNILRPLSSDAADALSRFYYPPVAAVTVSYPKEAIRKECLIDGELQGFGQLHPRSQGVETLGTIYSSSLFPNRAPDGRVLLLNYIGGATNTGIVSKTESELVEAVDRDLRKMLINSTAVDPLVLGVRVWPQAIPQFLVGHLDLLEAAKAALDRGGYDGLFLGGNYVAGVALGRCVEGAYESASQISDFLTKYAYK
T1 sequence (P55826 41-537 T56K/N425S/Y426M): as the sequence (P55826 41-537 T56K/Y426I) above, with N385S, I386M counted along it

With `CCOC(=O)COC(=O)c1cc(Oc2ccc(C(F)(F)F)cc2Cl)ccc1[N+](=O)[O-]` [IV], in assay [1], the “Cross tolerance, AraC-2Met + AraC425Ser” value is “+ (+ = 10× or more tolerant than WT)”. For the same compound, in assay [2], the “Cross tolerance, AraC-2Ile” value is “−”. Also, the “Cross tolerance, MzC-1Val” value in assay [3] is reported as “−”. Further, in assay [4], the Tolerance entry was “± (± ≦ 10× more tolerant than wt)”.

As to `COC(=O)CSc1cc(N=c2sc(=O)n3n2CCCC3)c(F)cc1Cl` [VIIa], the “Cross tolerance, AraC-2Met + AraC425Ser” value in assay [1] is recorded as “++ (++ = 100× or more tolerant than WT)”. For the same compound, the “Cross tolerance, AraC-2Ile” value in assay [2] is reported as “++ (++ = 100× or more tolerant than WT)”. Further, the “Cross tolerance, MzC-1Val” value in assay [3] was “+ (+ = 10× or more tolerant than WT)”. Moreover, the Tolerance entry in assay [4] was “++ (++ ≧ 100× more tolerant than wt)”.

For the compound `CCCCCOC(=O)COc1cc(N2C(=O)C3=C(CCCC3)C2=O)c(F)cc1Cl` [XIV], in assay [1], the “Cross tolerance, AraC-2Met + AraC425Ser” value is “++ (++ = 100× or more tolerant than WT)”. The “Cross tolerance, AraC-2Ile” value in assay [2] is “++ (++ = 100× or more tolerant than WT)”. Besides, the “Cross tolerance, MzC-1Val” value in assay [3] was “+ (+ = 10× or more tolerant than WT)”. Besides, in assay [4], the Tolerance entry was “+ (+ ≧ 10× more tolerant than wt)”.

In the case of `CC(C)OC(=O)c1cc(-n2c(=O)cc(C(F)(F)F)n(C)c2=O)ccc1Cl` [XI], the “Cross tolerance, AraC-2Met + AraC425Ser” value in assay [1] was “++ (++ = 100× or more tolerant than WT)”. Besides, the “Cross tolerance, AraC-2Ile” value in assay [2] is recorded as “++ (++ = 100× or more tolerant than WT)”. In addition, the “Cross tolerance, MzC-1Val” value in assay [3] was “+ (+ = 10× or more tolerant than WT)”. Besides, the Tolerance result in assay [4] was “++ (++ ≧ 100× more tolerant than wt)”.
